# Calls of active or inactive are those of the source. The calls are words filed in the database; no cut-off is given here.
# Assays:
# Rattus norvegicus [1] = test: Protective index, ratio of TD50 for po dosed Rattus norvegicus (rat) to ED50 for po dosed rat by subcutaneous pentylenetetrazole seizure test; assay type: functional
# Rattus norvegicus [2] = test: Protective index, ratio of TD50 for po dosed Rattus norvegicus (rat) to ED50 for po dosed rat by maximal electroshock seizures test; assay type: functional
# Rattus norvegicus [3] = test: Neurotoxicity in Rattus norvegicus (rat) assessed as minimal motor impairment at 20 mg/kg, ip at 60 min by rotorod test; assay type: toxicity, organism-based; parameters: dose 20 mg/kg, route intraperitoneal; details: in vivo, 1 h
# Rattus norvegicus [4] = test: Neurotoxicity in Rattus norvegicus (rat) assessed as minimal motor impairment at 20 mg/kg, ip at 30 min by rotorod test; assay type: toxicity, organism-based; parameters: dose 20 mg/kg, route intraperitoneal; details: in vivo, 0.5 h
# Rattus norvegicus [5] = test: Neurotoxicity in Rattus norvegicus (rat) assessed as minimal motor impairment at 20 mg/kg, ip at 5 min by rotorod test; assay type: toxicity, organism-based; parameters: dose 20 mg/kg, route intraperitoneal; details: in vivo
# Rattus norvegicus [6] = test: Anticonvulsant activity in Rattus norvegicus (rat) assessed as protection against maximal electroshock-induced seizure at 20 mg/kg, ip at 30 min; assay type: functional, organism-based; parameters: dose 20 mg/kg
# Rattus norvegicus [7] = test: Anticonvulsant activity in Rattus norvegicus (rat) assessed as protection against maximal electroshock-induced seizure at 20 mg/kg, ip at 15 min; assay type: functional, organism-based; parameters: dose 20 mg/kg
# Mus musculus [8] = test: Anticonvulsant activity in Mus musculus (mouse) assessed as protection against maximal electroshock-induced seizure up to 300 mg/kg, ip; assay type: functional, organism-based; parameters: dose 300 mg/kg
# [9] = Neurotoxicity in po dosed Rattus norvegicus (rat) assessed as minimal motor impairment by rotorod test; assay type: toxicity, organism-based; details: in vivo
# Rattus norvegicus [10] = test: Anticonvulsant activity in po dosed Rattus norvegicus (rat) assessed as protection against subcutaneous pentylenetetrazole-induced seizure; assay type: functional
# Rattus norvegicus [11] = test: Anticonvulsant activity in po dosed Rattus norvegicus (rat) assessed as protection against maximal electroshock-induced seizure; assay type: functional
# Rattus norvegicus [12] = test: Anticonvulsant activity in Rattus norvegicus (rat) assessed as protection against maximal electroshock-induced seizure at 30 mg/kg, po; assay type: functional, organism-based; parameters: dose 30 mg/kg
# Mus musculus [13] = test: Anticonvulsant activity in Mus musculus (mouse) assessed as protection against subcutaneous pentylenetetrazole-induced seizure up to 300 mg/kg, ip; assay type: functional, organism-based; parameters: dose 300 mg/kg
# Mus musculus [14] = test: Anticonvulsant activity in ip dosed Mus musculus Swiss Webster (mouse) assessed as protection against subcutaneous pentylenetetrazole-induced seizure at 0.5 hr; assay type: functional
# Mus musculus [15] = test: Anticonvulsant activity in ip dosed Mus musculus Swiss Webster (mouse) assessed as protection against maximal electroshock-induced seizure at 0.5 hr; assay type: functional
# Rattus norvegicus [16] = test: Neurotoxicity in Rattus norvegicus (rat) assessed as minimal motor impairment at 20 mg/kg, ip at 15 min by rotorod test; assay type: toxicity, organism-based; parameters: dose 20 mg/kg, route intraperitoneal; details: in vivo, 0.25 h
# Rattus norvegicus [17] = test: Neurotoxicity in Rattus norvegicus (rat) assessed as minimal motor impairment at 20 mg/kg, ip at 10 min by rotorod test; assay type: toxicity, organism-based; parameters: dose 20 mg/kg, route intraperitoneal; details: in vivo
# Rattus norvegicus [18] = test: Anticonvulsant activity in Rattus norvegicus (rat) assessed as protection against maximal electroshock-induced seizure at 20 mg/kg, ip at 10 min; assay type: functional, organism-based; parameters: dose 20 mg/kg
# Rattus norvegicus [19] = test: Anticonvulsant activity in Rattus norvegicus (rat) assessed as protection against maximal electroshock-induced seizure at 20 mg/kg, ip at 60 min; assay type: functional, organism-based; parameters: dose 20 mg/kg
# Rattus norvegicus [20] = test: Neurotoxicity in Rattus norvegicus (rat) at 300 mg/kg, ip; assay type: toxicity, organism-based; parameters: dose 300 mg/kg, route intraperitoneal; details: in vivo
# Rattus norvegicus [21] = test: Anticonvulsant activity Rattus norvegicus (rat) assessed as reduction of hippocampus kindling at 100 mg/kg, ip; assay type: functional, organism-based; parameters: dose 100 mg/kg
# Mus musculus [22] = test: Anticonvulsant activity in Mus musculus Swiss Webster (mouse) assessed as protection against maximal electroshock-induced seizure at 300 mg/kg, ip at 0.5 hr; assay type: functional, organism-based; parameters: dose 300 mg/kg
# Mus musculus [23] = test: Anticonvulsant activity in Mus musculus Swiss Webster (mouse) assessed as protection against subcutaneous pentylenetetrazole-induced seizure up to 300 mg/kg, ip at 0.5 hr; assay type: functional, organism-based; parameters: dose 300 mg/kg
# Mus musculus [24] = test: Anticonvulsant activity in Mus musculus (mouse) assessed as protection against maximal electroshock-induced seizure at 300 mg/kg, ip; assay type: functional, organism-based; parameters: dose 300 mg/kg
# Mus musculus [25] = test: Anticonvulsant activity in Mus musculus (mouse) assessed as protection against subcutaneous pentylenetetrazole-induced seizure at 300 mg/kg, ip; assay type: functional, organism-based; parameters: dose 300 mg/kg
# Mus musculus [26] = test: Anticonvulsant activity in po dosed Mus musculus (mouse) assessed as protection against maximal electroshock-induced seizure; assay type: functional
# Rattus norvegicus [27] = test: Anticonvulsant activity in ip dosed Rattus norvegicus (rat) assessed as protection against maximal electroshock-induced seizure; assay type: functional
# [28] = Neurotoxicity in ip dosed Mus musculus (mouse) assessed as minimal motor impairment by rotorod test; assay type: toxicity, organism-based; details: in vivo
# Mus musculus [29] = test: Anticonvulsant activity in ip dosed Mus musculus (mouse) assessed as protection against subcutaneous pentylenetetrazole-induced seizure; assay type: functional
# Mus musculus [30] = test: Anticonvulsant activity in ip dosed Mus musculus (mouse) assessed as protection against maximal electroshock-induced seizures; assay type: functional
# Mus musculus [31] = test: Anticonvulsant activity in Mus musculus (mouse) assessed as protection against maximal electroshock-induced seizure at 100 mg/kg, ip; assay type: functional, organism-based; parameters: dose 100 mg/kg
# [32] = Neurotoxicity in ip dosed Rattus norvegicus (rat) assessed as minimal motor impairment at 0.5 hr by rotorod test; assay type: toxicity, organism-based; details: in vivo
# Mus musculus [33] = test: Anticonvulsant activity in po dosed Mus musculus Swiss Webster (mouse) assessed as protection against maximal electroshock-induced seizure at 0.5 hr; assay type: functional
smiles,measurement,setting,value
C[C@@H](CO)NC(=O)OCc1ccccc1,Ratio TD50/ED50,Rattus norvegicus [1],2.88
same,Ratio TD50/ED50,Rattus norvegicus [2],>5.3
same,Activity,Rattus norvegicus [3],Non-toxic
same,Activity,Rattus norvegicus [4],Non-toxic
same,Activity,Rattus norvegicus [5],Non-toxic
same,Activity,Rattus norvegicus [6],inactive
same,Activity,Rattus norvegicus [7],inactive
same,Activity,Mus musculus [8],inactive
same,TD50,[9],> 360 mg/kg
same,ED50,Rattus norvegicus [10],> 125 mg/kg
same,ED50,Rattus norvegicus [11],67.6 mg/kg
same,Activity,Rattus norvegicus [12],Active
same,Activity,Mus musculus [13],inactive
same,ED50,Mus musculus [14],258 mg/kg
same,ED50,Mus musculus [15],54.7 mg/kg
same,Activity,Rattus norvegicus [16],Non-toxic
same,Activity,Rattus norvegicus [17],Non-toxic
C[C@H](CO)NC(=O)OCc1ccccc1,Ratio TD50/ED50,Rattus norvegicus [1],2
same,Ratio TD50/ED50,Rattus norvegicus [2],>21
same,Activity,Rattus norvegicus [3],Non-toxic
same,Activity,Rattus norvegicus [4],Non-toxic
same,Activity,Rattus norvegicus [5],Non-toxic
same,Activity,Rattus norvegicus [18],inactive
same,Activity,Mus musculus [8],inactive
same,TD50,[9],> 500 mg/kg
same,ED50,Rattus norvegicus [10],> 250 mg/kg
same,ED50,Rattus norvegicus [11],23.9 mg/kg
same,Activity,Mus musculus [13],inactive
same,ED50,Mus musculus [14],226 mg/kg
same,ED50,Mus musculus [15],60.1 mg/kg
same,Activity,Rattus norvegicus [19],inactive
same,Activity,Rattus norvegicus [16],Non-toxic
same,Activity,Rattus norvegicus [17],Non-toxic
same,Activity,Rattus norvegicus [20],Toxic
same,Activity,Rattus norvegicus [21],inactive
NC(=O)Oc1ccccc1 [CARBAMIC ACID PHENYL ESTER],Activity,Mus musculus [22],Active
same,ED50,Mus musculus [14],101 mg/kg
CNC(=O)OCc1ccccc1 [BENZYL N-METHYLCARBAMATE],Activity,Mus musculus [23],inactive
same,ED50,Mus musculus [15],40.5 mg/kg
CC[C@@H](CO)NC(=O)OCc1ccccc1,Activity,Mus musculus [13],inactive
same,Activity,Mus musculus [24],Active
same,ED50,Mus musculus [14],111 mg/kg
same,ED50,Mus musculus [15],123 mg/kg
O=C(NCc1ccccc1)OCc1ccccc1 [BENZYL BENZYLCARBAMATE],Activity,Mus musculus [13],inactive
same,Activity,Mus musculus [24],Active
same,ED50,Mus musculus [14],115 mg/kg
same,ED50,Mus musculus [15],170 mg/kg
CCCC(CO)NC(=O)OCc1ccccc1 (racemic),Activity,Mus musculus [24],Active
same,Activity,Mus musculus [25],Active
same,ED50,Mus musculus [14],281 mg/kg
same,ED50,Mus musculus [15],51.8 mg/kg
O=C(N[C@H](CO)Cc1ccccc1)OCc1ccccc1,Activity,Mus musculus [13],inactive
same,Activity,Mus musculus [24],Active
same,Activity,Mus musculus [14],Active
same,ED50,Mus musculus [15],33.5 mg/kg
NC(=O)OCC(CO)c1ccccc1 (stereo unspecified),ED50,Mus musculus [26],154 mg/kg
NC(=O)OCCc1ccccc1 [PHENYLETHYL CARBAMATE],Activity,Mus musculus [23],inactive
same,ED50,Mus musculus [15],17.7 mg/kg
CCC(COC(N)=O)c1ccccc1 (racemic),ED50,Rattus norvegicus [27],16.1 mg/kg
same,Ratio TD50/ED50,Rattus norvegicus [1],8
same,Ratio TD50/ED50,Rattus norvegicus [2],>15.3
same,TD50,[9],> 320 mg/kg
same,ED50,Rattus norvegicus [10],> 40 mg/kg
same,ED50,Rattus norvegicus [11],21 mg/kg
same,Activity,Rattus norvegicus [12],Active
same,TD50,[28],114 mg/kg
same,ED50,Mus musculus [29],87.6 mg/kg
same,ED50,Mus musculus [30],72.7 mg/kg
same,Activity,Mus musculus [25],Active
same,Activity,Mus musculus [31],Active
same,ED50,Mus musculus [14],124 mg/kg
same,ED50,Mus musculus [15],71.7 mg/kg
same,Activity,Rattus norvegicus [20],Toxic
same,Activity,Rattus norvegicus [21],inactive
same,TD50 at 0.5 h,[32],50.5 mg/kg
O=C(NCCO)OCc1ccccc1,Activity,Mus musculus [13],inactive
same,Activity,Mus musculus [24],Active
same,ED50,Mus musculus [14],170 mg/kg
same,ED50,Mus musculus [15],25.2 mg/kg
NC(=O)OCc1ccccc1 [BENZYL CARBAMATE],ED50,Mus musculus [14],80.2 mg/kg
same,ED50,Mus musculus [15],30.6 mg/kg
NC(=O)OCC(COC(N)=O)c1ccccc1 [FELBAMATE],ED50,Mus musculus [33],52 mg/kg
same,TD50,[9],> 500 mg/kg
same,ED50,Rattus norvegicus [10],> 250 mg/kg
same,ED50,Rattus norvegicus [11],25.3 mg/kg
same,ED50,Mus musculus [29],126 mg/kg
same,ED50,Mus musculus [30],35.5 mg/kg
same,ED50,Mus musculus [14],548 mg/kg
same,ED50,Mus musculus [15],35 mg/kg
same,Activity,Rattus norvegicus [21],inactive
CC[C@H](CO)NC(=O)OCc1ccccc1,Activity,Mus musculus [13],inactive
same,Activity,Mus musculus [24],Active
same,ED50,Mus musculus [14],144 mg/kg
same,ED50,Mus musculus [15],80.5 mg/kg
O=C(N[C@@H](CO)Cc1ccccc1)OCc1ccccc1,Activity,Mus musculus [13],inactive
same,Activity,Mus musculus [24],Active
same,Anticonvulsant activity,Mus musculus [14],Active
same,ED50,Mus musculus [15],14.9 mg/kg
CCCC(C)(COC(N)=O)COC(N)=O [MEPROBAMATE],ED50,Mus musculus [33],165 mg/kg
same,ED50,Mus musculus [14],66 mg/kg
same,ED50,Mus musculus [15],127 mg/kg

# Reference: ChEMBL document CHEMBL3046477, “Carbamate derivatives of felbamate as potential anticonvulsant agents” (Med Chem Res, 2010)
